Molecules are shown by their SMILES. ≈ marks a conversion by molar mass, not a printed value.

This passage reports MIC90, MIC and Kd results from ChEMBL document CHEMBL3259665, “Development of bacterial transglycosylase inhibitors as new antibiotics: moenomycin A treatment for drug-resistant Helicobacter pylori” (Bioorg Med Chem Lett, 2014).

For assay [1], the system named is Helicobacter pylori. Put plainly: Antimicrobial activity against Helicobacter pylori isolated from gastrointestinal disease patient after 72 hrs by Etest method. It counts as functional.
Assay [2] has as its system Helicobacter pylori. Put plainly: Antimicrobial activity against Helicobacter pylori. The format is functional.
Assay [3] can be described thus: Binding affinity to Helicobacter pylori transglycosylase.

With `CC[C@H]1OC(=O)[C@H](C)[C@@H](O[C@H]2C[C@@](C)(OC)[C@@H](O)[C@H](C)O2)[C@H](C)[C@@H](O[C@@H]2O[C@H](C)C[C@H](N(C)C)[C@H]2O)[C@](C)(OC)C[C@@H](C)C(=O)[C@H](C)[C@@H](O)[C@]1(C)O` [CLARITHROMYCIN], the MIC90 (usually the lowest concentration that inhibits either 90% of growth or 90% of the strains tested, depending on the study) with Helicobacter pylori [1] came to 8 µg/mL (≈ 10.7 µM).

The compound `Cc1ncc([N+](=O)[O-])n1CCO` [METRONIDAZOLE] returned an MIC90 with Helicobacter pylori [1] of 16 µg/mL (≈ 93.5 µM).

For the compound `C[C@H]1COc2c(N3CCN(C)CC3)c(F)cc3c(=O)c(C(=O)O)cn1c23.C[C@H]1COc2c(N3CCN(C)CC3)c(F)cc3c(=O)c(C(=O)O)cn1c23.O` [LEVOFLOXACIN], in the assay on Helicobacter pylori [1], the MIC90 was found to be 1 µg/mL.

Take `C=C(C/C=C(\C)CCC=C(C)C)CCC(C)(C)/C=C/CC/C(C)=C/CO[C@@H](COP(=O)(O)O[C@H]1O[C@H](C(N)=O)[C@@](C)(O)[C@H](OC(N)=O)[C@H]1O[C@@H]1O[C@H](CO[C@@H]2O[C@H](CO)[C@@H](O)[C@H](O)[C@H]2O)[C@@H](O[C@@H]2O[C@H](C)[C@@H](O[C@@H]3O[C@H](C(=O)NC4=C(O)CCC4=O)[C@H](O)[C@H](O)[C@H]3O)[C@H](O)[C@H]2NC(C)=O)[C@H](O)[C@H]1NC(C)=O)C(=O)O` [MOENOMYCIN A]: the MIC (in general, the lowest concentration that inhibits growth of the organism) against Helicobacter pylori [2] turned out to be 1.3 µM (≈ 2.06 µg/mL). In assay [3], the Kd (usually a measure of binding affinity in units of concentration) was 25 nM. This compound also showed an MIC90 in the assay on Helicobacter pylori [1] of 2 µg/mL (≈ 1.26 µM).

`CN(C)[C@@H]1C(O)=C(C(N)=O)C(=O)[C@@]2(O)C(O)=C3C(=O)c4c(O)cccc4[C@@](C)(O)[C@H]3C[C@@H]12` [TETRACYCLINE]: the MIC90 against Helicobacter pylori [1] was found to be 0.5 µg/mL (≈ 1.13 µM).
